How the values were obtained:
ECS engendered amnesy = experiment: passive avoidance test, electroconvulsive shock (ECS) induced amnesia; type: in vivo, rat; conditions: groups of 10
Protocol: (§1) The antiamnesic activity was tested by means of the classical passive avoidance test, with respect to the amnesy induced in the rat, by administration of scopolamine, or by means of electroconvulsive shock (ECS).For both the tests a shuttle-box was used of the Ugo Basile Company (Comerio, Varese), consisting of two compartments, one of which compartments was clear and the other one dark and fitted with an electrifiable floor.
(§2) In order to induce a passive avoidance response, the animal was placed onto a runner of the clear compartment, enlightened by a 60 watt lamp, for a 1 minute acclimatisation, whereafter a bulkhead was opened putting the runner in communication with the dark compartment, which the animal istinctively entered after a latency of a few seconds. The bulkhead was immediately shut and the animal got a 0.21 mA current for 2 second through the electrifiable floor. The animal was then removed and newly subjected to the test 24 h later, in order to verify the retention level of the acquired response of passive avoidance, measuring the latency required by the entry into the electrifiable compartment, with an end-point of 300 second.
(§3) All the tests were carried out under conditions of stratified randomization, using in each test session the same number of animals for the different experimental groups tested in parallel, and comprising, besides the groups treated with the product under test (test substances and reference substances having known activity), two separate groups of controls and precisely: blank controls (animals treated with placebo) and deconditioned controls (animals treated with placebo and subjected to amnesic treatment by means of scopolamine or of ECS).
(§4) The results obtained with the different dosages of the products subjected to screening and with the corresponding reference standards having a known activity, namely N(S)-3-(formyl-amino)-epsilon-caprolactam, N(4-phenylbutanoyl-hydroxy)prolyl-pyrrolidine and glycerophosphoryl-serine, were expressed as a percentage of antagonism of the amnesy (AA), defined according to the following formula: [formula] wherein the index of comparison IC, concerning treated animals (t) and blank controls (b), is defined by the formula: [formula] wherein: Nm = number of animals belonging to group m (blanks or treated animals); Nn = number of animals belonging to group n (deconditioned animals); Amn = binary function which can assume only the values +1, zero or - 1, depending on the fact that the latency time (seconds) of an animal of the m group (xm) be respectively higher than, equal to or lower than the latency time (seconds) of an animal of the n group (xn).
(§5) The summation Σ Amn i extended to all the pairs obtained combining each xm term with each xn term.
(§6) Normally the comparison index (IC) between blank controls and deconditioned controls is between 60% and 80% and the test was discarded when such index resulted to be lower than 40%.
The animals got the products to be tested 30 minute before undergoing the previously described avoidance test.
In this series of experimental works the deconditioning treatment consists of an electroshock (square wave of 45 m, amplitude 0.6 ms, time 2 s and frequency 40 Hz), delivered by means of auricular electrodes, connected to an electrostimulator ECT/UNIT of the Ugo Basile Company (Comerio, Varese).
The used dosages were 8x10⁻² mmol/kg for the standard substances, therefore higher than the ones used in the preceeding test and this depends on a lower activity of the standard substances, previously ascertained in this test, in our experimental conditions.
The dosages of the products to be tested were correlatively comprised between 2x10⁻² and 24x10⁻² mmol/kg, with an intermediate dosage equimolar (8x10⁻² mmol/kg) with respect to the ones of the standard substances.

[1] = system: scopolamine induced amnesy; experiment: passive avoidance test, scopolamine induced amnesia (intraperitoneal administration); type: in vivo, rat; conditions: scopolamine 1 mg/kg; for Avoid. time (sec.) After 24 h: re-test after 24 h, end-point 300 second
Protocol: as §1, §2, §3, §4, §5, §6
The utilized rats were male C.r.l.: CD (50) BR (Charles River Italia), showing a weight of 150-170 g, after an acclimatisation time of a week, under standard conditions.
The animals got the products to be tested by intraperitoneal way and scopolamine bromhydrate (1 mg/kg) by subcutaneous way, respectively 45 and 30 minutes before being subjected to the previously described avoidance test.
As to the standard substances [GFS, N(S)-3-(formylamino)-epsilon-caprolactam and N(4-phenylbutanoylhydroxy)prolyl-pyrrolidine], the used dosage was 4x10⁻² mmol/kg, whereas for the products to be tested the used dosage was between 1x10⁻² and 12x10⁻² mmol/kg, with an intermediate dosage equimolar with respect to the one of the standards.

[2] = dose 8 x 10^-2 mmoli/kg i.p. 30' before the acquisition trial
[3] = dose 4 x 10^-2 mmoli/kg i.p. 30' before the acquisition trial
[4] = dose 12 x 10^-2 mmoli/kg i.p. 30' before the acquisition trial
[5] = dose 16 x 10^-2 mmoli/kg i.p. 30' before the acquisition trial

Molecule | Time taken to enter chamber (min) (ECS engendered amnesy; [2]) | No.of amnesic rats/No. of rats tested ([1]; dose 4.10^-2 mmoli/kg i.p.) | Percent amnesia ([1]; dose 4.10^-2 mmoli/kg i.p.) [%] | Avoid. time (sec.) After 24 h ([1]; dose 4.10^-2 mmoli/kg i.p.) | Time taken to enter chamber (min) (ECS engendered amnesy; [3]) | Time taken to enter chamber (min) (ECS engendered amnesy; [4]) | Time taken to enter chamber (min) (ECS engendered amnesy; [5]) | No.of amnesic rats/No. of rats tested ([1]; dose 8.10^-2 mmoli/kg i.p.) | Percent amnesia ([1]; dose 8.10^-2 mmoli/kg i.p.) [%] | Avoid. time (sec.) After 24 h ([1]; dose 8.10^-2 mmoli/kg i.p.) | No.of amnesic rats/No. of rats tested ([1]; dose 12.10^-2 mmoli/kg i.p.) | Percent amnesia ([1]; dose 12.10^-2 mmoli/kg i.p.) [%] | Avoid. time (sec.) After 24 h ([1]; dose 12.10^-2 mmoli/kg i.p.) [s] | Time taken to enter chamber (min) (ECS engendered amnesy; dose 24 x 10^-2 mmoli/kg i.p. 30' before the acquisition trial)
N[C@@H](COP(=O)(O)OC[C@H](O)CO)C(=O)O [GFS, glycerophosphoryl-serine, reference compound] | 0,236 min | 4/10 | 40 | 126,5 sec. |  |  |  |  |  |  |  |  |  | 
COC(=O)CN1CCCC[C@H](NC(=O)[C@@H](N)COP(=O)(O)OC[C@@H](COC(C)=O)OC(C)=O)C1=O [MGS 1] | 1,378 min | 2/10 | 20 | 243,5 sec. | 0,664 min | 1,916 min | 1,615 min | 1/10 | 10 | 266,6 sec. | 0/10 | 0 | 300 | 
COC(=O)CN1CCCC[C@H](NC(=O)[C@@H](N)COP(=O)(O)OC[C@H](O)CO)C1=O [MGS 2] | 1,418 min | 2/10 | 20 | 270 s | 0,557 min | 2,072 min | 1,777 min | 0/10 | 0 | 300 s | 0/10 | 0 | 300 | 
N[C@@H](COP(=O)(O)OC[C@H](O)CO)C(=O)N[C@H]1CCCCNC1=O [MGS 4] | 0,466 min |  |  |  |  | 1,316 min |  |  |  |  |  |  |  | 1,883 min
O=CN[C@H]1CCCCNC1=O [N-Formylamino ε -caprolactame, N(S)-3-(formyl-amino)-epsilon-caprolactam, reference compound] | 0,131 min | 4/10 | 40 | 72,5 sec. |  |  |  |  |  |  |  |  |  | 
N(4-phenylbutanoyl-hydroxy)prolyl-pyrrolidine [Phenyl-butirryl prolyl-pirrolidine, reference compound] | 0,213 min | 4/10 | 40 | 101,7 sec. |  |  |  |  |  |  |  |  |  | 
